{
  "source": "patent US8188074B2",
  "about": "(priority 2001, dated 2012)",
  "key": {"[1]": {"tested_on": "E. coli", "assay": "Photoinactivation of E. coli", "assay_type": "cell-based", "details": "for log change in CFU/ml / percentage cell survival / log change CFU/ml: E. coli; for log change CFU/ml: laser light", "protocol": "(§1) Cell inactivation was then measured."}, "[2]": {"tested_on": "C. albicans", "assay": "Photoinactivation of C. albicans", "assay_type": "cell-based, Candida albicans", "details": "10 μM; laser light at 0.1 W", "protocol": "as §1"}, "[3]": {"tested_on": "S. aureus", "details": "10 μM, laser light (665 nm) 0.1 W", "experimental": "(§2) Stock solutions of the photosensitisers were made up to 5 mM in dimethylsulfoxide (DMSO). The 5 mM stock was further diluted in DMSO to a working concentration of 1 mM. All photosensitisers were stored in foil covered vials at room temperature until required.\n(§3) The microorganisms were grown until in the mid-logarithmic phase and then harvested and resuspended.\n(§4) The log or stationary phase cells were collected by centrifugation and washed twice in 0.1 M potassium phosphate buffer (pH 7.0). Following washing, the cells were resuspended in the same buffer to an absorbance of 0.87 at 650 nm.\n(§5) 25 ml of the prepared cell suspension was incubated with 0.25 mls of a 1 mM stock solution of photosensitiser (giving a final concentration of 10 μM) in a 250 ml sterile foil covered conical flask. The suspension was incubated for 30 minutes in the dark in a 37° C. shaking incubator at 250 rpm.\n(§6) After incubation with 10 μM phenothiazinium compound, 10 ml of the bacterial culture was aseptically transferred to a sterile cell. This consisted of a sealed vial with a sealed capillary tube inserted, into which the optical fibre could be placed. […]\n(§7) 50 ml of the illuminated and non-illuminated samples of the suspension were removed and diluted in 0.1 M pH 7.0 potassium phosphate buffer. […] Cell inactivation was then measured."}, "[4]": {"tested_on": "E. coli"}, "[5]": {"tested_on": "P. aeruginosa", "assay": "Photoinactivation of P. aeruginosa", "details": "10 μM, laser light (665 nm) 0.1 W", "experimental": "as §2, §3, §4, §5, §6, §7"}, "[6]": {"assay": "Octanol-buffer partition coefficient", "description": "The octanol buffer partition coefficient (p) determines the lipophilicity of the drug."}, "[7]": {"tested_on": "RIF-1 murine fibrosarcoma cells", "assay": "Cellular uptake in RIF-1 cells", "assay_type": "cell-based", "details": "2 h incubation, solubilised in 2% SDS, fluorescence"}, "[8]": {"details": "patients after administration; cited from earlier work"}, "[9]": {"details": "30 min with 10 μM, halogen lamp 60 minutes at 1.3 mW/cm^2"}, "[10]": {"details": "octanol-buffer partition coefficient"}},
  "note": "Read-outs that look alike come from different tables or passages of the source.",
  "data": [
    {"compound": "3,7-(tetra-n-butylamino)-phenothiazin-5-ium [Compound 2]", "values": [
      {"measurement": "log change in CFU/ml of washed versus unwashed E. coli cells, FIG. 10", "setting": "[1]; 10 μM, washed twice, laser light (665 nm) 0.1 W for 4 minutes", "value": "little difference"},
      {"measurement": "log change in CFU/ml", "setting": "[1]; [9]", "value": 5.1, "unit": "log10"},
      {"measurement": "percentage cell survival", "setting": "[1]; [9]", "value": 0.001, "unit": "%"},
      {"measurement": "log change in CFU/ml", "setting": "[1]; 30 min with 10 μM, illuminated 15 minutes at 1.3 mW/cm^2", "value": 4.59, "unit": "log10 units"},
      {"measurement": "log change in CFU/ml", "setting": "[1]; 30 min with 50 μM, illuminated 15 minutes at 1.3 mW/cm^2", "value": 2.15, "unit": "units"},
      {"measurement": "log change CFU/ml", "setting": "[1]; 14 minute illumination at 0.1 W", "value": 5.69, "unit": "log"},
      {"measurement": "log change CFU/ml", "setting": "[1]; 20 minute illumination at 0.1 W, number of CFU too small to be statistically reliable", "value": "~8.5", "unit": "units"},
      {"measurement": "antibacterial activity, E. coli resuspended in nutrient medium, FIG. 7", "setting": "[1]; nutrient medium, 10 μM, 60 minutes at 1.3 mW/cm^2", "value": "highest antibacterial activity"},
      {"measurement": "killing of Candida albicans in the light, FIG. 16", "setting": "[2]", "value": "readily destroyed"},
      {"measurement": "bacteria inactivated", "setting": "[3]; 1 minute", "value": "~99", "unit": "%"},
      {"measurement": "cell kill", "setting": "[3]; 10 minutes", "value": "~5", "unit": "logs"},
      {"measurement": "growth of an E. coli culture in the dark compared to control, FIG. 11", "setting": "[4]; 10 μM in growth media, dark, 37° C., 6 hours, turbidity at 550 nm", "value": "greatest inhibition"},
      {"measurement": "growth of E. coli after addition of photosensitiser at 3 hours, in the dark, FIG. 12", "setting": "[4]; 10 μM, dark", "value": "continuing growth"},
      {"measurement": "growth of E. coli after addition of photosensitiser at 3 hours, in the light, FIG. 12", "setting": "[4]; 10 μM, light", "value": "complete elimination of growth"},
      {"measurement": "cell kill", "setting": "[5]; 2 minutes", "value": "greater than 99%"},
      {"measurement": "cell kill", "setting": "[5]; 10 minutes", "value": "~4", "unit": "logs"}
    ]},
    {"compound": "3-(N,N-diethanolamino)-7-(N,N-dipentylamino)-phenothiazin-5-ium iodide [Compound 28]", "values": [
      {"measurement": "Log P", "setting": "[6]", "value": "+1.1"}
    ]},
    {"compound": "CCCCCCN(CCCCCC)c1ccc2nc3ccc(N(CCCCCC)CCCCCC)cc3[s+]c2c1.[Br-]", "note": "[Compound 4]", "values": [
      {"measurement": "Log P", "setting": "[6]; [10]", "value": "+1.3"},
      {"measurement": "Uptake at PDT LD50", "setting": "[7]", "value": 1.6, "unit": "nmol/mg protein"},
      {"measurement": "log change in CFU/ml", "setting": "[1]; [9]", "value": 0.19, "unit": "log10"},
      {"measurement": "percentage cell survival", "setting": "[1]; [9]", "value": 65.3, "unit": "%"}
    ]},
    {"compound": "CCN(CC)c1ccc2nc3ccc(N(CC)CC)cc3[s+]c2c1.[Cl-]", "note": "[Compound 6, ethylene blue, reference compound]", "values": [
      {"measurement": "Log P", "setting": "[6]; [10]", "value": "+0.2"},
      {"measurement": "Uptake at PDT LD50", "setting": "[7]", "value": 2.9, "unit": "nmol/mg protein"}
    ]},
    {"compound": "CCCCN(CCCC)c1ccc2nc3ccc(N4CCOCC4)cc3[s+]c2c1.[I-]", "note": "[Compound 24]", "values": [
      {"measurement": "Log P", "setting": "[6]; [10]", "value": "+1.0"}
    ]},
    {"compound": "Oc1cccc(-c2c3nc(c(-c4cccc(O)c4)c4ccc([nH]4)c(-c4cccc(O)c4)c4nc(c(-c5cccc(O)c5)c5ccc2[nH]5)CC4)C=C3)c1", "note": "[Foscan]", "values": [
      {"measurement": "period of sensitivity to light", "setting": "[8]", "value": "approximately 15 days"}
    ]}
  ]
}
